In patent US20230295166A1, “ATR INHIBITORS AND USES THEREOF” (ANTENGENE DISCOVERY LIMITED, priority 2020, published 2023):
pIC50: −log10 of the molar value.

Key:
ATR kinase = ATR kinase (Homo sapiens (Human), UniProt Q13535); assay: ATR inhibition assay (mobility shift assay, phosphorylation of FAM-RAD17); format: biochemical; details: ATR kinase (Eurofins), substrate FAM-RAD17, mobility shift
Protocol: Assay 1: ATR Inhibition Assay
Detection of ATR kinase activity utilized the Mobility shift assay to measure the phosphorylation of the substrate protein FAM-RAD17 (GL, Cat. No. 514318, Lot. No. P19042-MJ524315). The assay was developed and conducted at Chempartner. All the test compounds were dissolved in 100% DMSO at concentration of 20 mM, then prepare compounds and conducted the assay as follows: • 1) Transfer 80 μl 20 mM compound to 40 μl of 100% DMSO in a 96-well plate. • 2) Serially dilute the compound by transferring 20 μl to 60 μl of 100% DMSO in the next well and so forth for a total of 10 concentrations. • 3) Add 100 μl of 100% DMSO to two empty wells for no compound control and no enzyme control in the same 96-well plate. Mark the plate as source plate. • 4) Transfer 40 μl of compound from source plate to a new 384-well plate as the intermediate plate. • 5) Transfer 60 nl compounds to assay plate by Echo. • 6) Add ATR kinase (Eurofins, Cat. No. 14-953, Lot. No. D14 JP007N) into Kinase base buffer (50 mM HEPES, pH 7.5; 0.0015% Brij-35; 0.01% Triton) to prepare 2× enzyme solution, then add 10 μl of 2× enzyme solution to each well of the 384-well assay plate, incubate at room temperature for 10 min. • 7) Add FAM-RAD17 and ATP (Sigma, Cat. No. A7699-1G, CAS No. 987-65-5) in the kinase base buffer to prepare 2×peptide solution, then add 10 μl to the assay plate. • 8) Incubate at 28° C. for specified period of time. Add 40 μl of stop buffer (100 mM HEPES, pH 7.5; 0.015% Brij-35; 0.2% Coating Reagent #3; 50 mM EDTA) to stop reaction. • 9) Collect data on Caliper. Convert conversion values to inhibition values.
Percent inhibition=(max−conversion)/(max−min)*100 wherein “max” stands for DMSO control; “min” stands for low control.
Fit the data in XLFit excel add-in version 5.4.0.8 to obtain IC50 values. Equation used is:
Y=Bottom+(Top−Bottom)/(1+(IC50/X)^HillSlope) wherein X means concentration in a format not transformed to logarithms.

LoVo (CCL-229) cells = assay: Tumor cell anti-proliferation assay (CTG assay); format: cell-based; details: LoVo human colorectal cancer cells, 96 h, CellTiter-Glo
Procedure, shortened: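 Cells seeded and held 20–24 h, then exposed to 3-fold serial dilutions of compound (final DMSO 0.5%) for 96 h at 37 °C, 5% CO2. Viability measured by CellTiter-Glo luminescence; IC50 and GI50 from a 4-parameter logistic fit.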

Chain of ATR kinase (Q13535 whole entry): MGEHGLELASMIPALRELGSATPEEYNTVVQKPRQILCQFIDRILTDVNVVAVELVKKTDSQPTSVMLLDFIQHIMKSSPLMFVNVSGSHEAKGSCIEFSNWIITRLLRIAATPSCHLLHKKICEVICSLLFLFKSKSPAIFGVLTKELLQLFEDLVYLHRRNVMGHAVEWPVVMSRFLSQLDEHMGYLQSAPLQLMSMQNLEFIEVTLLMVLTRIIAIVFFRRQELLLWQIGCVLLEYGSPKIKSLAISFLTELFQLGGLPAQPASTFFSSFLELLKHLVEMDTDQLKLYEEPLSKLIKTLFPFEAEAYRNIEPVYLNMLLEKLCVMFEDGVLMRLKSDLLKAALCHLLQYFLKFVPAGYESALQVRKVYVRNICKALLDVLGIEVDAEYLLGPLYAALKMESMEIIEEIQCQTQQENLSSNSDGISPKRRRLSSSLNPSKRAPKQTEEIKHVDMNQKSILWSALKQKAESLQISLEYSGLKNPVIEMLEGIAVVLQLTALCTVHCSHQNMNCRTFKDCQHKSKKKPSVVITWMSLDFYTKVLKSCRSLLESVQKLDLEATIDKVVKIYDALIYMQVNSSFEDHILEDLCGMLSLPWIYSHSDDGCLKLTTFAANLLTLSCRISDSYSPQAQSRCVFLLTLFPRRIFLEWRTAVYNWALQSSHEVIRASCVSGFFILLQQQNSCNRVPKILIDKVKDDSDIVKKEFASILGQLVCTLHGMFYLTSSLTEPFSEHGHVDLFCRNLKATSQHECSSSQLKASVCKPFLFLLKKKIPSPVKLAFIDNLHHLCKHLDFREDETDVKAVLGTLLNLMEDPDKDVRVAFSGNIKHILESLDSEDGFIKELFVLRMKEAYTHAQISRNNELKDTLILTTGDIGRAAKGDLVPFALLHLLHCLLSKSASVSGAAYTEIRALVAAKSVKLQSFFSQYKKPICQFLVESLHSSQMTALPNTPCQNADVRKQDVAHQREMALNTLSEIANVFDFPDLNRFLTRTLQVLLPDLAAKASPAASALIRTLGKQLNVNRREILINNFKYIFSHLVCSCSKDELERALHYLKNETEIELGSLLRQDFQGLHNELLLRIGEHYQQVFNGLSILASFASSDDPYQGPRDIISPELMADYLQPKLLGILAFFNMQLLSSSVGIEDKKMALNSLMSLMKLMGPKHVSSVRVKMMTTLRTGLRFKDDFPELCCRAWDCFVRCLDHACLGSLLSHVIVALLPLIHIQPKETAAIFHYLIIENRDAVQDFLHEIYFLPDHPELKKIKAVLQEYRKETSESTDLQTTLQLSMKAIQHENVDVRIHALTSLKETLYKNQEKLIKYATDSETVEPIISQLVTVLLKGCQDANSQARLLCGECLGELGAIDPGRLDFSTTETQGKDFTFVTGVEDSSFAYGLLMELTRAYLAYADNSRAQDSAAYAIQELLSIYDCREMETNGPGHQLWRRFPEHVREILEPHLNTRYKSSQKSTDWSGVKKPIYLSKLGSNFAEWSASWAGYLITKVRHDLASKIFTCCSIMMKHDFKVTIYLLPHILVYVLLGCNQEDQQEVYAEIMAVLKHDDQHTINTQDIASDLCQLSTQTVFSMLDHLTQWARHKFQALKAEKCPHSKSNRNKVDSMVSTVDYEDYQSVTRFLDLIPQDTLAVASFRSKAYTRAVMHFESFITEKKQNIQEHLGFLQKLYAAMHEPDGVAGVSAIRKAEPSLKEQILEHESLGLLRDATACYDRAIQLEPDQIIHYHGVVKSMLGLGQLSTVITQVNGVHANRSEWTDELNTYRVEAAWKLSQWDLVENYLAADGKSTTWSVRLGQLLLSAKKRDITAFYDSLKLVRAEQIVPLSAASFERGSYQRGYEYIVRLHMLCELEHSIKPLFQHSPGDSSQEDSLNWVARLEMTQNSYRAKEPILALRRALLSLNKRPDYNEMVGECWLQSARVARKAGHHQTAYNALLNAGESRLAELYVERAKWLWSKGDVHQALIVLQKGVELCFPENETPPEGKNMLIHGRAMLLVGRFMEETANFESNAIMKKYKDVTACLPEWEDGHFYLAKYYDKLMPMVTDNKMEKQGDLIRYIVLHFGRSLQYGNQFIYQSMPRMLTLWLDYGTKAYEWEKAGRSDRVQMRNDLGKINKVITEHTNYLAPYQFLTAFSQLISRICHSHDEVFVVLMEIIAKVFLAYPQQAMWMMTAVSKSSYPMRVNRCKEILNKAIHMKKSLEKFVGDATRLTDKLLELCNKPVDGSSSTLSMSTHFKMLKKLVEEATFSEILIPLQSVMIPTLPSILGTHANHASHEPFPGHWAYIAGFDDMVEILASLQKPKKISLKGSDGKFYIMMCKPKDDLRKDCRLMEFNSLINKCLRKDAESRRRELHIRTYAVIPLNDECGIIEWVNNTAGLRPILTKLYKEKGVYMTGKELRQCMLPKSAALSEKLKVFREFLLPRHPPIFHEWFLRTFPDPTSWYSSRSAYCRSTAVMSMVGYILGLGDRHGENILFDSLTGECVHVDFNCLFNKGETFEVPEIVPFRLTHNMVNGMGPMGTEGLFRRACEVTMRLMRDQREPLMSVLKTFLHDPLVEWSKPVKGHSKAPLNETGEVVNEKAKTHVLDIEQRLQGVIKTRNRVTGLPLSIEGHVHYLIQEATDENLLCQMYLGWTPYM
Chain of ATR kinase (Q8WXE1 whole entry partner): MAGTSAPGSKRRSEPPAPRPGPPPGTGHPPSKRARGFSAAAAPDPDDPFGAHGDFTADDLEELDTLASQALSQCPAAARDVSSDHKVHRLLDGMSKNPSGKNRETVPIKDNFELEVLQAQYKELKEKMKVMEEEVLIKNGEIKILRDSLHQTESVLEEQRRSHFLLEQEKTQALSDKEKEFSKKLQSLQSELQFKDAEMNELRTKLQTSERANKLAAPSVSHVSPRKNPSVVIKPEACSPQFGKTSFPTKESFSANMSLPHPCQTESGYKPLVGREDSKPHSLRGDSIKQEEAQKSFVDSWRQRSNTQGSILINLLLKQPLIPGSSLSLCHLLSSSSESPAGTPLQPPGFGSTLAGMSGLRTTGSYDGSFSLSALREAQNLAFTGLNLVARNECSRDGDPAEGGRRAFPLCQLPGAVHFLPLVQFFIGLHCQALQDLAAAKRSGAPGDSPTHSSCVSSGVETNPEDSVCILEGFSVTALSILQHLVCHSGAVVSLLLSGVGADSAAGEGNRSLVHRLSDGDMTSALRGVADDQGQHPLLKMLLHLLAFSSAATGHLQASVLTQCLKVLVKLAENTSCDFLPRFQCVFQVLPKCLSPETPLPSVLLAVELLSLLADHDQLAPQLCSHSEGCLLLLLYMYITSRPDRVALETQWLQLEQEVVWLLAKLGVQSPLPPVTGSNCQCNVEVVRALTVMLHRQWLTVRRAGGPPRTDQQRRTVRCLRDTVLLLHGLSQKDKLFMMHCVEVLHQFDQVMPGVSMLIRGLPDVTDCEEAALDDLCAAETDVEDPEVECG

Structure (SMILES)	pIC50 (ATR kinase)	pIC50 (LoVo (CCL-229) cells)
C[C@@H]1COCCN1c1cc(-c2ccnn2C)c2snc(-c3ccn[nH]3)c2n1 [Example 29, (3R)-3-methyl-4-[7-(1-methyl-1H-pyrazol-5-yl)-3-(1H-pyrazol-5-yl)-[1,2]thiazolo[4,5-b]pyridin-5-yl]morpholine]	> 7.00	7.85
C[C@@H]1COCCN1c1cc(C2(S(C)(=O)=O)CC2)c2ncc(-c3ccn[nH]3)n2n1 [Example 22, (R)-3-methyl-4-(8-(1-(methylsulfonyl)cyclopropyl)-3-(1H-pyrazol-5-yl)imidazo[1,2-b]pyridazin-6-yl)morpholine]	> 7.00	6.21
C[C@@H]1COCCN1c1cc(C2(S(C)(=O)=O)CC2)c2cnc(-c3ccn[nH]3)n2n1 [Example 30, (R)-3-methyl-4-(4-(1-(methylsulfonyl)cyclopropyl)-7-(1H-pyrazol-5-yl)imidazo[1,5-b]pyridazin-2-yl)morpholine]	> 7.00	6.82
C[C@@H]1COCCN1c1cc(C2(S(C)(=O)=O)CC2)n2ncc(-c3ccn[nH]3)c2n1 [Example 5, (R)-3-methyl-4-(7-(1-(methylsulfonyl)cyclopropyl)-3-(1H-pyrazol-5-yl)pyrazolo[1,5-a]pyrimidin-5-yl)morpholine]	> 7.00	6.29
Cc1nnn(C)c1-c1cc(N2CCOC[C@H]2C)nn2c(-c3ccn[nH]3)ncc12 [Example 33, (3R)-4-[4-(dimethyl-1H-1,2,3-triazol-5-yl)-7-(1H-pyrazol-5-yl)imidazo[1,5-b]pyridazin-2-yl]-3-methylmorpholine]	> 7.00	6.79
Cc1cc(-c2ncc3c(C4(S(C)(=O)=O)CC4)cc(N4CCOC[C@H]4C)nn23)[nH]n1 [Example 31, (R)-3-methyl-4-(7-(3-methyl-1H-pyrazol-5-yl)-4-(1-(methylsulfonyl)cyclopropyl)imidazo[1,5-b]pyridazin-2-yl)morpholine]	> 7.00	7.08
C[C@@H]1COCCN1c1cc(C(C)(C)S(C)(=O)=O)c2snc(-c3ccn[nH]3)c2n1 [Example 55, (R)-3-methyl-4-(7-(2-(methylsulfonyl)propan-2-yl)-3-(1H-pyrazol-5-yl)isothiazolo[4,5-b]pyridin-5-yl)morpholine]	> 7.00	7.86
Cc1cc(-c2nsc3c(-c4c(C)nnn4C)cc(N4CCOC[C@H]4C)nc23)[nH]n1 [Example 48, (R)-4-(7-(1,4-dimethyl-1H-1,2,3-triazol-5-yl)-3-(3-methyl-1H-pyrazol-5-yl)isothiazolo[4,5-b]pyridin-5-yl)-3-methylmorpholine]	> 7.00	7.48
Cc1cc(-c2nsc3c(C4(S(C)(=O)=O)CC4)cc(N4CCOC[C@H]4C)nc23)[nH]n1 [Example 50, (R)-3-methyl-4-(3-(3-methyl-1H-pyrazol-5-yl)-7-(1-(methylsulfonyl)cyclopropyl)isothiazolo[4,5-b]pyridin-5-yl)morpholine]	> 7.00	7.77
C[C@@H]1COCCN1c1cc(-c2ccnn2C)n2ncc(-c3ccn[nH]3)c2n1 [Example 1, (R)-3-methyl-4-(7-(1-methyl-1H-pyrazol-5-yl)-3-(1H-pyrazol-5-yl)pyrazolo[1,5-a]pyrimidin-5-yl)morpholine]	> 7.00	6.31
C[C@@H]1COCCN1c1cc(C2(C#N)CC2)c2snc(-c3ccn[nH]3)c2n1 [Example 51, (R)-1-(5-(3-methylmorpholino)-3-(1H-pyrazol-5-yl)isothiazolo[4,5-b]pyridin-7-yl)cyclopropane-1-carbonitrile]	> 7.00	7.80
Cc1cc(-c2cnn3c(-c4ccnn4C)cc(N4CCOC[C@H]4C)nc23)[nH]n1 [Example 18, (R)-3-methyl-4-(7-(1-methyl-1H-pyrazol-5-yl)-3-(3-methyl-1H-pyrazol-5-yl)pyrazolo[1,5-a]pyrimidin-5-yl)morpholine]	> 7.00	6.42

Now from value to compound:

pIC50 (ATR kinase)	pIC50 (LoVo (CCL-229) cells)	Structure (SMILES)
> 7.00	8.00	Cc1cc(-c2nsc3c(C4(C#N)CCCC4)cc(N4CCOC[C@H]4C)nc23)[nH]n1 [Example 80, (R)-1-(3-(3-methyl-1H-pyrazol-5-yl)-5-(3-methylmorpholino)isothiazolo[4,5-b]pyridin-7-yl)cyclopentane-1-carbonitrile]
> 7.00	7.61	C[C@@H]1COCCN1c1cc(N2CCCCS2(=O)=O)c2snc(-c3ccn[nH]3)c2n1 [Example 76, (R)-2-(5-(3-methylmorpholino)-3-(1H-pyrazol-5-yl)isothiazolo[4,5-b]pyridin-7-yl)-1,2-thiazinane 1,1-dioxide]
> 7.00	8.39	C[C@@H]1COCCN1c1cc(C2(C#N)CCCCC2)c2cnc(-c3ccn[nH]3)n2n1 [Example 60, (R)-1-(2-(3-methylmorpholino)-7-(1H-pyrazol-5-yl)imidazo[1,5-b]pyridazin-4-yl)cyclohexane-1-carbonitrile]
> 7.00	8.52	Cc1cc(-c2nsc3c(C4(C(N)=O)CCCC4)cc(N4CCOC[C@H]4C)nc23)[nH]n1 [Example 87, (R)-1-(3-(3-methyl-1H-pyrazol-5-yl)-5-(3-methylmorpholino)isothiazolo[4,5-b]pyridin-7-yl)cyclopentane-1-carboxamide]
> 7.00	8.40	Cc1cc(-c2nsc3c(S(=O)(=O)C4CC4)cc(N4CCOC[C@H]4C)nc23)[nH]n1 [Example 85, (R)-4-(7-(cyclopropylsulfonyl)-3-(3-methyl-1H-pyrazol-5-yl)isothiazolo[4,5-b]pyridin-5-yl)-3-methylmorpholine]
> 7.00	7.84	Cc1cc(-c2nc(Cl)c3c(-c4ccnn4C)cc(N4CCOC[C@H]4C)nn23)[nH]n1 [Example 62, (3R)-4-[5-chloro-4-(1-methyl-1H-pyrazol-5-yl)-7-(3-methyl-1H-pyrazol-5-yl)imidazo[1,5-b]pyridazin-2-yl]-3-methylmorpholine]
> 7.00	> 9.00	C[C@@H]1COCCN1c1cc(C2(C#N)CCCCC2)c2snc(-c3ccn[nH]3)c2n1 [Example 58, (R)-1-(5-(3-methylmorpholino)-3-(1H-pyrazol-5-yl)isothiazolo[4,5-b]pyridin-7-yl)cyclohexane-1-carbonitrile]
> 7.00	7.72	Cc1cc(-c2nsc3c(C(C)(C)S(C)(=O)=O)cc(N4CCOC[C@H]4C)nc23)[nH]n1 [Example 56, (R)-3-methyl-4-(3-(3-methyl-1H-pyrazol-5-yl)-7-(2-(methylsulfonyl)propan-2-yl)isothiazolo[4,5-b]pyridin-5-yl)morpholine]
> 7.00	8.00	Cc1cc(-c2nsc3c(C4(C#N)CCCCC4)cc(N4CCOC[C@H]4C)nc23)[nH]n1 [Example 81, (R)-1-(3-(3-methyl-1H-pyrazol-5-yl)-5-(3-methylmorpholino)isothiazolo[4,5-b]pyridin-7-yl)cyclohexane-1-carbonitrile]
> 7.00	8.60	C[C@@H]1COCCN1c1cc(C2(C#N)CCCC2)c2snc(-c3ccn[nH]3)c2n1 [Example 57, (R)-1-(5-(3-methylmorpholino)-3-(1H-pyrazol-5-yl)isothiazolo[4,5-b]pyridin-7-yl)cyclopentane-1-carbonitrile]
> 7.00	7.85	C[C@@H]1COCCN1c1cc(C2(C#N)CCOCC2)c2snc(-c3ccn[nH]3)c2n1 [Example 83, (R)-4-(5-(3-methylmorpholino)-3-(1H-pyrazol-5-yl)isothiazolo[4,5-b]pyridin-7-yl)tetrahydro-2H-pyran-4-carbonitrile]
> 7.00	> 9.00	C[C@@H]1COCCN1c1cc(C2(C(N)=O)CCCCC2)c2snc(-c3ccn[nH]3)c2n1 [Example 89, 1-{5-[(3R)-3-methylmorpholin-4-yl]-3-(1H-pyrazol-5-yl)-[1,2]thiazolo[4,5-b]pyridin-7-yl}cyclohexane-1-carboxamide]
> 7.00	8.05	Cc1cc(-c2nsc3c(C4(C#N)CCOCC4)cc(N4CCOC[C@H]4C)nc23)[nH]n1 [Example 84, (R)-4-(3-(3-methyl-1H-pyrazol-5-yl)-5-(3-methylmorpholino)isothiazolo[4,5-b]pyridin-7-yl)tetrahydro-2H-pyran-4-carbonitrile]
